Assay results taken from publication PMC11012289, “The Discovery of New Inhibitors of Insulin-Regulated Aminopeptidase by a High-Throughput Screening of 400,000 Drug-like Compounds” (International Journal of Molecular Sciences, 2024).
pIC50: −log10 of the molar value.

Columns and labels:
IRAP [1] = target: T1, IRAP (Homo sapiens, UniProt Q9UIQ6); experiment: Primary fluorescence IRAP assay (L-Leucine-7-amido-4-methylcoumarin cleavage); format: biochemical; conditions: for pIC50: 37.5 µM L-Leucine-7-amido-4-methylcoumarin, 60 min RT, dose-response 20 µM-27.4 nM, read-out: Fluorescence IC50; for LipE: calculated from (pIC50Fluorescence − LogD)
T1 construct: The screen was performed with the soluble truncated IRAP enzyme; made in house
T1 sequence (Q9UIQ6 155-1025 limits assumed): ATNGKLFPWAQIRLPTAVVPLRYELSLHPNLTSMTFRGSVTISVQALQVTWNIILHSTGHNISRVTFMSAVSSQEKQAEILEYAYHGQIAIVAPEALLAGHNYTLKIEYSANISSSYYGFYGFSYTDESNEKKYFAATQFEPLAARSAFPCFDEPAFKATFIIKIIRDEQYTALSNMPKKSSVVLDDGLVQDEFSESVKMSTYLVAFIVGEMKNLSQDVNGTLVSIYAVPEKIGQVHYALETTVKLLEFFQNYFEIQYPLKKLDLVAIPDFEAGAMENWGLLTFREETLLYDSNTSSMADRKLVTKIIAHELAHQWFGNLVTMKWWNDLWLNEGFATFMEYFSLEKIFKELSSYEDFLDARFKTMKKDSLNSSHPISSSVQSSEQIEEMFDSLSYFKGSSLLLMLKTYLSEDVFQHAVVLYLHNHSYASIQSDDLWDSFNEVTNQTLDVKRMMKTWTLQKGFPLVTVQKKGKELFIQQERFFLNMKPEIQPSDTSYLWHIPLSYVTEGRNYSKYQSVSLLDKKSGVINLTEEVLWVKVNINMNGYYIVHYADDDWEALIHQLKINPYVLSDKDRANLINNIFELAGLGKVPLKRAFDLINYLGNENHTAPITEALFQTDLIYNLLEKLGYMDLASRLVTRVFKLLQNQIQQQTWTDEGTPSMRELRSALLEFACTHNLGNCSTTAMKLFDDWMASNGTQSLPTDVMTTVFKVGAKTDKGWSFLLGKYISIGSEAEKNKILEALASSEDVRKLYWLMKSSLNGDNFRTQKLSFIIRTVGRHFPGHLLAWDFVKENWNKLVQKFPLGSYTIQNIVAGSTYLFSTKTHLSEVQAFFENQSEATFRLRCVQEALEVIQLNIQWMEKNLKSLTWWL
Text: The primary biochemical assay was developed to measure the enzymatic activity of IRAP.
To ensure biochemically sound, optimal, robust, and affordable assay conditions for large-scale screening, several factors need to be considered. […] For both primary fluorescence and orthogonal absorbance assays, non-binding 1536-well assay plates were used, and 0.05% BSA was included in the assay buffer to minimize the issues associated with protein sticking to plastics. The substrate Km values were determined in two separate experiments using two different batches of IRAP protein. For this, the IRAP progress curve was monitored every 5 min for 2 h using an Envision multimode plate reader (PerkinElmer, Waltham, MA, USA).
First, 10 nL of test compounds (4 mM) or 100% DMSO was dispensed into the 1536-well assay plates using an Echo acoustic liquid handler (Beckman Coulter, Brea, CA, USA). Then, 2 μL of protein working solution (5 × 10^−4 mg/mL) was dispensed to the negative control (min effect) and compound wells (final well concentration 2.5 × 10^−4 mg/mL) using a Certus Flex liquid dispenser (Fritz Gyger AG, Thun, Switzerland) and 2 μL assay buffer to the positive control wells (max effect) using a FLEXdrop (PerkinElmer, Waltham, MA, USA).
Figure S9. Reference compounds in Fluorescence IRAP assay with different end volumes in 1536-well format.
mg/ml) and 2 or 4 µL L -Leucine-7-amido-4-methylcoumarin (f.a.c.
Plates were measured on the Envision every 10 minutes for 140 minutes (data
shown up to 2 hours). %Effect was calculated using no protein as MAX effect (assay buffer was added instead of IRAP).

IRAP [2] = target: T1, IRAP; experiment: Orthogonal absorbance IRAP assay (L-Leucine para-nitroanilide cleavage); format: biochemical; conditions: 1 mM L-Leucine p-Nitroanilide, 120 min RT; read-out: Absorbance pIC50 (converted)
Text: The primary biochemical assay was developed to measure the enzymatic activity of IRAP. […] To establish an orthogonal assay, an alternative L-Leucine para-nitroanilide substrate was used, which IRAP turns over to L-Leucine and para-nitroaniline and is measurable by absorbance at 405 nm (Supplementary Figure S2B).
To ensure biochemically sound, optimal, robust, and affordable assay conditions for large-scale screening, several factors need to be considered. These include the final concentration of substrates, based on the determined substrate Km value; the assay kinetics and reaction linearity; achieving a minimal, rate limiting protein concentration; identifying optimal buffer additives and concentrations; the choice of assay plate type; the final assay volume per well; the stability of reagents; the magnitude and variance of the signal; and the potency and rank order of reference compounds. For both primary fluorescence and orthogonal absorbance assays, non-binding 1536-well assay plates were used, and 0.05% BSA was included in the assay buffer to minimize the issues associated with protein sticking to plastics. The substrate Km values were determined in two separate experiments using two different batches of IRAP protein. For this, the IRAP progress curve was monitored every 5 min for 2 h using an Envision multimode plate reader (PerkinElmer, Waltham, MA, USA). […] To evaluate if using substrate concentrations close to the determined Km values results in sufficient dynamic range within the linear range of the enzymatic reaction, Z′ and S/B were calculated for multiple time points up to 2.5 h in the presence and absence of reference compounds in both assays. The primary fluorescence assay reached an optimal Z′-value after 1 h when using 37.5 μM substrate (Supplementary Figure S5). For the absorbance, 2 h was required for the enzyme reaction time; however, using ~0.4 mM substrate was associated with increased assay variation and a poor Z′ (Supplementary Figure S6).
The orthogonal assay was performed in a black non-binding 1536-well plate (Corning 3728) and sealed with universal lids (Corning 3098). First, 20 nL of test compounds (4 mM) or 100% DMSO was dispensed into the 1536-well assay plates using an Echo acoustic liquid handler (Beckman Coulter). Then, 4 μL of protein working solution (5 × 10^−4 mg/mL) was dispensed to the negative control (min effect) and compound wells (final well concentration 2.5 × 10^−4 mg/mL) using the Certus Flex liquid dispenser (Fritz Gyger AG) and 4 μL assay buffer to the positive control wells (max effect) using the FLEXdrop (PerkinElmer). Next, 4 μL of 2 mM substrate working solution was dispensed into all wells using the FLEXdrop (final well concentration 1 mM). The assay plates were then centrifuged at 187.5× g for 30 s, incubated in the dark at RT for 120 min, and finally read on an Envision plate reader (PerkinElmer) (absorbance at 405 nm, 10 flashes per second). During the dose–response curve analysis in the orthogonal assay, 80 nL of compound (range 2.00 × 10^−3 M–2.74 × 10^−6 M) or 100% DMSO was dispensed into the assay plates using an Echo acoustic liquid handler (Beckman Coulter) with final well concentration range of 20 μM–27.4 nM compound and 1% DMSO.

IRAP [3] = target: T1, IRAP; experiment: Deselection fluorescence IRAP assay with 10 µM zinc; format: biochemical; conditions: 10 µM ZnSO4 in assay buffer; read-out: Fluorescence + Zn pIC50 (converted)
Description: To prepare the assay buffer (50 mM Tris-HCl pH 7.4, 150 mM NaCl, 0.1 mM PMSF, 0.05% BSA) of the primary and orthogonal assays, 1 M Tris-HCl was prepared by dissolving 60.57 g Trizma-base (Mw 121.14 g/mol) (Sigma 93362-250G) in 500 mL MQ water, and the pH was adjusted to 7.4 using 4 M HCl. The solution was filtered with a 0.45 μm filter and stored at room temperature (RT). Then, 2 M NaCl stock was prepared by dissolving 29.22 g NaCl (Mw 58.44 g/mol) (Sigma S7653-250G) in 250 mL MQ water. The solution was filtered with a 0.45 μm filter and stored at RT. Next, 100 mM Phenylmethanesulfonylfluoride (PMSF) stock was prepared by dissolving 1 g PMSF (Mw 174.19 g/mol) (Sigma 78830-1G) in 57.4 mL isopropanol (Sigma I9516-500ML) and stored at 4 °C. A 10% Bovine Serum Albumin (BSA) stock solution was prepared by dissolving 2 g BSA (Mw 66.5 kDa) (Sigma A7030-50G), which was dissolved in 20 mL MQ water. The solution was filtered with a 0.45 μm filter, aliquoted, and stored at −20 °C. For the deselection assay buffer (50 mM Tris-HCl pH 7.4, 150 mM NaCl, 0.1 mM PMSF, 0.05% BSA, 10 μM ZnSO4), 1 mM ZnSO4 solution was prepared by dissolving 28.8 mg ZnSO4 (Mw 287.56 g/mol) (Sigma Z0251-100G) in 100 mL MQ water. The solution was filtered with a 0.45 μm filter and stored at RT. For the TSA assay buffer (50 mM Tris HCL, 150 mM NaCl, pH 7.4), stocks of 1 M Tris HCL and 2 M NaCl were prepared as described above.

IRAP [4] = target: T1, IRAP; experiment: Thermal shift (TSA) IRAP assay; format: binding; conditions: screening hits at 30 µM, 1% DMSO
Text: The Thermal shift assay (TSA) is a biophysical technique measuring protein thermal stability. The assay relies on a fluorescent dye that is quenched in an aqueous environment but fluoresces when de-solvated in non-polar environments, such as the hydrophobic pockets of proteins. The target protein is mixed with the dye and heated gradually until it becomes completely denatured; as it unfolds or melts, the dye binds to newly exposed hydrophobic regions of the protein, resulting in a significant increase in fluorescence emission detected by a PCR system. The melting temperature (Tm) is calculated from the protein melt curve, and changes in Tm (known as ΔTm) are correlated with changes in protein stability and ligand binding. […] For the TSA assay, vehicle (DMSO) or compound was dispensed into MicroAmp Endura optical qPCR plates at the desired volume using an Echo acoustic liquid handler. […] The plates were then centrifuged for 10 s at 1000 rpm and sealed with Clear PCR-compatible plate seals.

[5] = parameters: method as in ELF screening history; conditions: ref ELF screening history, cited from earlier work; for Enzyme Active: number of ELF enzyme screens in which the compound was active; for Targets active: number of ELF screens in which the compound was active; for Enzyme Active %: share of ELF enzyme targets screened; for Targets Active %: share of all ELF targets screened

| Structure (SMILES) | pIC50 (IRAP [1]) | LipE (IRAP [1]) | IC50 (IRAP [2]) | IC50 (IRAP [3]) | ΔTm at 30 µM (IRAP [4]) | Enzyme Active [5] | Targets active [5] | Enzyme Active % [5] | Targets Active % [5] |
| --- | --- | --- | --- | --- | --- | --- | --- | --- | --- |
| O=C(Cc1cc(N2CCCCC2)nc(-c2cccc(F)c2)n1)NO [QHL21] | 5.53 | 2.57 | 5.62 µM | 2.82 µM | 2.66 °C | 6 | 9 | 6.9% | 6.3% |
| CC(C)CC(C(=O)NO)S(=O)(=O)N1CCN(c2ccc(F)cc2)CC1 (stereo not drawn) [QHL24] | 5.51 | 3.57 | 3.02 µM | 5.5 µM | 4 °C | 2 | 2 | 5.4% | 3.5% |
| CC(C)n1cc(C(=O)N2CCc3n[nH]c(-c4cccc(F)c4)c3CC2)cn1 [QHL25] | 5.50 | 2.30 | > 20 µM | 3.47 µM | 0 °C | 2 | 2 | 4.8% | 2.6% |
| O=C(C1CCCCC1)N1CCC[C@@H]1c1cc(-c2cccnc2)on1 [QHL27] | 5.49 | 2.14 | 10.7 µM | 5.13 µM | 1.48 °C | 4 | 5 | 5.0% | 3.4% |
| CSc1[nH]c(-c2ccccc2)nc1S(=O)(=O)c1ccccc1 [QHL28] | 5.49 | 1.54 | 15.5 µM | 5.62 µM | 0.15 °C | 4 | 6 | 4.3% | 4.0% |
| O=C(Cc1cc(N2CCCCCC2)nc(-c2ccc(Cl)cc2)n1)NO [QHL29] | 5.48 | 1.60 | 2.95 µM | 3.24 µM | 1.92 °C | 10 | 14 | 11.8% | 10.2% |
